Data as given in patent publication US11274092B2, “Potassium channel inhibitors” (ACESION PHARMA ApS, priority 2016, dated 2022).

Molecular target: T1, human SK3 channel (hKCa2.3) (Homo sapiens, UniProt Q9UGI6)
T1 construct: expressed in transfected cells
Test: Automated whole cell patch-clamp (QPatch 16 HT), inhibition of SK3 current
Format: cell-based
Conditions: HEK-293 cells stably expressing hKCa2.3; symmetrical K+ solutions, free calcium 400 nM; effects normalized to N-methyl bicuculline
Experimental: Automated whole cell patch-clamp recordings were performed using a QPatch 16 HT system and single-hole Qplates (Biolin Scientific, Sophion, Denmark) on HEK-293 cells stably expressing the human SK3 channel (hKCa2.3). Cells were cultured and prepared for experiments using normal cell culturing procedures. A total of 4-5 million cells were used per experiment. The Qpatch automatically generates giga sealing, whole-cell formation, compound application and recording of current. hKCa2.3 currents were recorded in symmetrical K^+ solutions, with an intracellular solution consisting of in mM: KCl 108; KOH/EGTA (ethylene glycol-bis(2-aminoethylether)-N,N,N′,N′-tetraacetic acid) 31.25/10; CaCl2) 8.1; MgCl2 1.2; HEPES (2-[4-(2-hydroxyethyl)piperazin-1-yl]ethanesulfonic acid) 10; KOH 15, pH adjusted to pH=7.2 with HCl. The free calcium concentration was calculated to 400 nM. The extracellular solution consisted of in mM: KCl 150; CaCl2) 0.1; MgCl2 3; HEPES 10; Glucose 10, pH=7.4 with KOH. The cells were held at 0 mV and hKCa2.3 currents were elicited by a linear voltage ramp from […] (200 ms in duration) applied every 5th second. The compound application protocol consisted of 12 recording periods lasting from 50-200 s: 1) Baseline recordings in extracellular solution; 2) Application of the positive control N-methyl bicuculline (100 μM), which is characterized by full efficacy, fast on- and off-rate; 3-4) Wash-out; 5-9) Increasing concentrations of test compound to establish an IC50 value; 10-11) Wash-out; 12) positive control with compound NS8593 (N-[(1R)-1,2,3,4-tetrahydro-1-naphthalenyl]-1H-benzimidazol-2-amine) (1 μM). Data were sampled at 10 kHz, 4th order Bessel filter, cut-off frequency 3 kHz. Currents were compensated for run-down. Potency was quantified as the concentration needed to inhibit half of the SK channel activity and reported as an IC50 value. All effects of compounds of the present invention as tested were normalized to the observed inhibitory effect of N-methyl bicuculline.

Compound | IC50
Cc1noc(C)c1CCNC(=O)CC(Nc1nc2ccccc2[nH]1)c1cccc(C(F)(F)F)c1 (centres unmarked) [Example 74, 3-[(1H-1,3-benzodiazol-2-yl)amino]-N-[2-(dimethyl-1,2-oxazol-4-yl)ethyl]-3-[3-(trifluoromethyl)phenyl]propanamide] | < 10 µM
CCN(CCO)C(=O)C(Cc1cccc(C(F)(F)F)c1)Nc1nc2ccccc2[nH]1 (centres unmarked) [Example 64, 2-[(1H-1,3-benzodiazol-2-yl)amino]-N-ethyl-N-(2-hydroxyethyl)-3-[3-(trifluoromethyl)phenyl]propanamide] | 10 to 100 µM
COCCN(C)C(=O)CC(Nc1nc2ccccc2[nH]1)c1cccc(C(F)(F)F)c1 (centres unmarked) [Example 43, 3-[(1H-1,3-benzodiazol-2-yl)amino]-N-(2-methoxyethyl)-N-methyl-3-[3-(trifluoromethyl)phenyl]propanamide] | < 10 µM
CCN(CCSC)C(=O)CC(Nc1nc2c(CO)cccc2[nH]1)c1cccc(C(F)(F)F)c1 (centres unmarked) [Example 58, N-ethyl-3-{[4-(hydroxymethyl)-1H-1,3-benzodiazol-2-yl]amino}-N-[2-(methylsulfanyl)ethyl]-3-[3-(trifluoromethyl)phenyl]propanamide] | < 10 µM
O=C(CC(Nc1nc2ccccc2[nH]1)c1cccc(SC(F)(F)F)c1)NCc1nc2ccccc2o1 (centres unmarked) [Example 89, 3-[(1H-1,3-benzodiazol-2-yl)amino]-N-(1,3-benzoxazol-2-ylmethyl)-3-{3-[(trifluoromethyl)sulfanyl]phenyl}propanamide] | < 10 µM
CN(CCCO)C(=O)CC(Nc1nc2ccccc2[nH]1)c1cccc(C(F)(F)F)c1 (single isomer, unassigned; (-)) [Example 17a, (−) 3-[(1H-1,3-benzodiazol-2-yl)amino]-N-(3-hydroxypropyl)-N-methyl-3-[3-(trifluoromethyl)phenyl]propanamide] | < 10 µM
CNCCN(C)C(=O)CC(Nc1nc2ccccc2[nH]1)c1cccc(C(F)(F)F)c1 (centres unmarked) [Example 44, 3-[(1H-1,3-benzodiazol-2-yl)amino]-N-methyl-N-[2-(methylamino)ethyl]-3-[3-(trifluoromethyl)phenyl]propanamide] | 10 to 100 µM
O=C(CC(Nc1nc2ccccc2[nH]1)c1cccc(C(F)(F)F)c1)NCCOC(F)(F)F (centres unmarked) [Example 67, 3-[(1H-1,3-benzodiazol-2-yl)amino]-N-[2-(trifluoromethoxy)ethyl]-3-[3-(trifluoromethyl)phenyl]propanamide] | < 10 µM
CCN(CCO)C(=O)CC(Nc1nc2ccccc2[nH]1)c1cccc(C(F)(F)F)c1 (centres unmarked) [Example 41, 3-[(1H-1,3-benzodiazol-2-yl)amino]-N-ethyl-N-(2-hydroxy-ethyl)-3-[3-(trifluoromethyl)phenyl]propanamide] | < 10 µM
CCN(CCO)C(=O)CC(Nc1nc2ccccc2[nH]1)c1ccc(Cl)c(C)c1 (single isomer, unassigned; (+)) [Example 40b, (+)3-[(1H-1,3-benzodiazol-2-yl)amino]-3-(4-chloro-3-methylphenyl)-N-ethyl-N-(2-hydroxyethyl)propanamide] | 10 to 100 µM
N#CCNC(=O)CC(Nc1nc2ccccc2[nH]1)c1cccc(OC(F)(F)F)c1 (centres unmarked) [Example 85, 3-[(1H-1,3-benzodiazol-2-yl)amino]-N-(cyanomethyl)-3-[3-(trifluoromethoxy)phenyl]propanamide] | < 10 µM
CN(CC(N)=O)C(=O)CC(Nc1nc2ccccc2[nH]1)c1cccc(C(F)(F)F)c1 (centres unmarked) [Example 60, 3-[(1H-1,3-benzodiazol-2-yl)amino]-N-(carbamoylmethyl)-N-methyl-3-[3-(trifluoromethyl)phenyl]propanamide] | 10 to 100 µM
O=C(CC(Nc1nc2ccccc2[nH]1)c1cccc(C(F)(F)F)c1)NCCNS(=O)(=O)Cc1ccccc1 (centres unmarked) [Example 12, 3-[(1H-1,3-benzodiazol-2-yl)amino]-N-[2-(phenylmethanesulfonamido)ethyl]-3-[3-(trifluoromethyl)phenyl]propanamide] | 10 to 100 µM
COCCNC(=O)CC(C)(Nc1nc2cc(F)ccc2[nH]1)c1cccc(C(F)(F)F)c1 (centres unmarked) [Example 91, 3-[(5-fluoro-1H-1,3-benzodiazol-2-yl)amino]-N-(2-methoxyethyl)-3-[3-(trifluoromethyl)phenyl]butanamide] | < 10 µM
CCc1cc(C(CC(=O)N(CC)CCO)Nc2nc3ccccc3[nH]2)ccc1F (centres unmarked) [Example 65, 3-[(1H-1,3-benzodiazol-2-yl)amino]-N-ethyl-3-(3-ethyl-4-fluorophenyl)-N-(2-hydroxyethyl)propanamide] | < 10 µM
COCCNC(=O)CC(Nc1nc2ccccc2[nH]1)c1cccc(SC2CCC2)c1 (centres unmarked) [Example 87, 3-[(1H-1,3-benzodiazol-2-yl)amino]-3-[3-(cyclobutylsulfanyl)phenyl]-N-(2-methoxyethyl)propanamide] | < 10 µM
CCN(CCO)C(=O)CC(Nc1nc2ccccc2[nH]1)c1ccc(F)c(C)c1 (single isomer, unassigned; (-)) [Example 39a, (−)3-[(1H-1,3-benzodiazol-2-yl)amino]-N-ethyl-3-(4-fluoro-3-methylphenyl)-N-(2-hydroxyethyl)propanamide] | < 10 µM

Other lines, results leading:

IC50 | Compound
10 to 100 µM | CCN(CCO)C(=O)C(Nc1nc2ccccc2[nH]1)c1cccc(C(F)(F)F)c1 (single isomer, unassigned; (+)) [Example 38b, (+)2-[(1H-1,3-benzodiazol-2-yl)amino]-N-ethyl-N-(2-hydroxyethyl)-2-[3-(trifluoromethyl)phenyl]acetamide]
10 to 100 µM | O=C(CC(Nc1nc2ccccc2[nH]1)c1cccc(C(F)(F)F)c1)NCC1COC1 (centres unmarked) [Example 7, 3-[(1H-1,3-benzodiazol-2-yl)amino]-N-(oxetan-3-ylmethyl)-3-[3-(trifluoromethyl)phenyl]propanamide]
10 to 100 µM | O=C(CC(Nc1nc2ccccc2[nH]1)c1cccc(C(F)(F)F)c1)N1CCC(O)CC1 (centres unmarked) [Example 5, 3-[(1H-1,3-benzodiazol-2-yl)amino]-1-(4-hydroxypiperidin-1-yl)-3-[3-(trifluoromethyl)phenyl]propan-1-one]
< 10 µM | COC(=O)N1CCN(C(=O)C(Nc2nc3ccccc3[nH]2)c2cccc(C(F)(F)F)c2)CC1 (centres unmarked) [Example 61, Methyl 4-{2-[(1H-1,3-benzodiazol-2-yl)amino]-2-[3-(trifluoromethyl)phenyl]acetyl}piperazine-1-carboxylate]
< 10 µM | O=C(CC(Nc1nc2ccccc2[nH]1)c1cccc(C(F)(F)F)c1)NC1COC1 (centres unmarked) [Example 10, 3-[(1H-1,3-benzodiazol-2-yl)amino]-N-(oxetan-3-yl)-3-[3-(trifluoromethyl)phenyl]propanamide]
< 10 µM | COCCNC(=O)CC(Nc1nc2ccccc2[nH]1)c1cccc(C(F)(F)F)c1 (centres unmarked) [Example 42, 3-[(1H-1,3-benzodiazol-2-yl)amino]-N-(2-methoxyethyl)-3-[3-(trifluoromethyl)phenyl]propanamide]
< 10 µM | COCC(C)NC(=O)CC(Nc1nc2ccccc2[nH]1)c1cccc(C(F)(F)F)c1 (centres unmarked) [Example 73, 3-[(1H-1,3-benzodiazol-2-yl)amino]-N-(1-methoxypropan-2-yl)-3-[3-(trifluoromethyl)phenyl]propanamide]
< 10 µM | CCN(CC(=O)OC)C(=O)CC(Nc1nc2ccccc2[nH]1)c1cccc(C(F)(F)F)c1 (centres unmarked) [Example 47, Methyl 2-{3-[(1H-1,3-benzodiazol-2-yl)amino]-N-ethyl-3-[3-(trifluoromethyl)phenyl]propanamido}acetate]
10 to 100 µM | O=C(CC(Nc1nc2ccccc2[nH]1)c1cccc(C(F)(F)F)c1)N1CCC[C@@H](O)C1 (stereo partly drawn) [Example 13, 3-[(1H-1,3-benzodiazol-2-yl)amino]-1-[(3R)-3-hydroxypiperidin-1-yl]-3-[3-(trifluoromethyl)phenyl]propan-1-one]
< 10 µM | CCN(CCO)C(=O)C(Nc1nc2ccccc2[nH]1)c1cccc(C(F)(F)F)c1 (single isomer, unassigned; (-)) [Example 38a, (−)2-[(1H-1,3-benzodiazol-2-yl)amino]-N-ethyl-N-(2-hydroxyethyl)-2-[3-(trifluoromethyl)phenyl]acetamide]
10 to 100 µM | COCC(=O)NCCNC(=O)CC(Nc1nc2ccccc2[nH]1)c1cccc(C(F)(F)F)c1 (centres unmarked) [Example 62, 3-[(1H-1,3-benzodiazol-2-yl)amino]-N-[2-(2-methoxyacetamido)ethyl]-3-[3-(trifluoromethyl)phenyl]propanamide]
< 10 µM | CCN(CCO)C(=O)C(Nc1nc2ccccc2[nH]1)c1cccc(C(F)(F)F)c1 (centres unmarked) [Example 38, 2-[(1H-1,3-benzodiazol-2-yl)amino]-N-ethyl-N-(2-hydroxyethyl)-2-[3-(trifluoromethyl)phenyl]acetamide]
